One may read the IC50 as the point on the concentration scale where inhibition reaches its midpoint.

Here are results for 26 compounds from US20190284136A1, “INDOLINE DERIVATIVES” (ViiV HEALTHCARE UK LIMITED, priority 2016, published 2019).

The assay has as its system HIV. Put plainly: Table 1 IC50 of the examples (assay method not given; patent concerns inhibiting HIV replication). Type of assay: cell-based. The note with it: Human immunodeficiency virus 1.
Compound `COc1cc(-c2c3c(cc(C)c2[C@H](OC(C)(C)C)C(=O)O)N(C(=O)c2ccc(C)nc2)CC3)c(C)c2c1OCCC2` (atropisomer, axis not shown) [Example 193, (S)-2-(tert-Butoxy)-2-((R)-4-(8-methoxy-5-methylchroman-6-yl)-6-methyl-1-(6-methylnicotinoyl)indolin-5-yl)acetic acid] showed an IC50 of 9 nM.
The value for `COc1c(C(=O)N2CCc3c2cc(C)c([C@H](OC(C)(C)C)C(=O)O)c3-c2cc(F)c3c(c2C)CCCO3)ccc(F)c1F` (atropisomer, axis not shown) [Example 113, (S)-2-(tert-Butoxy)-2-((R)-1-(3,4-difluoro-2-methoxybenzoyl)-4-(8-fluoro-5-methylchroman-6-yl)-6-methylindolin-5-yl)acetic acid] was 2 nM; that for `Cc1cc2c(c(-c3ccc4c(c3C)CCCO4)c1[C@H](OC(C)(C)C)C(=O)O)CCN2C(=O)c1cc(F)cc(F)c1` (atropisomer, axis not shown) [Example 189, (S)-2-(tert-Butoxy)-2-((R)-1-(3,5-difluorobenzoyl)-6-methyl-4-(5-methylchroman-6-yl)indolin-5-yl)acetic acid] was 6 nM.
In turn, `Cc1cc2c(c(-c3cc(F)c4c(c3C)CCCO4)c1[C@H](OC(C)(C)C)C(=O)O)CCN2C(=O)c1cccc(F)c1Cl` (atropisomer, axis not shown) [Example 49, (S)-2-(tert-Butoxy)-2-((R)-1-(2-chloro-3-fluorobenzoyl)-4-(8-fluoro-5-methylchroman-6-yl)-6-methylindolin-5-yl)acetic acid] gave an IC50 of 2 nM.
`Cc1cc2c(c(-c3cc(F)c4c(c3C)CCCO4)c1[C@H](OC(C)(C)C)C(=O)O)CCN2C(=O)c1ccc(C(F)(F)F)cc1F` (atropisomer, axis not shown) [Example 136, (S)-2-(tert-Butoxy)-2-((R)-1-(2-fluoro-4-(trifluoromethyl)benzoyl)-4-(8-fluoro-5-methylchroman-6-yl)-6-methylindolin-5-yl)acetic acid] gave a half-inhibitory concentration (IC50) of 41 nM.
The value for `COc1ccccc1C(=O)N1CCc2c1cc(C)c([C@H](OC(C)(C)C)C(=O)O)c2-c1ccc(C)cc1` [Example 17, (S)-2-(tert-Butoxy)-2-(1-(2-methoxybenzoyl)-6-methyl-4-(p-tolyl)indolin-5-yl)acetic acid] was 11 nM; that for `Cc1ccc(C(=O)N2CCc3c2cc(C)c([C@H](OC(C)(C)C)C(=O)O)c3-c2cc(C)c3c(c2C)CCCO3)cn1` (atropisomer, axis not shown) [Example 195, (S)-2-(tert-Butoxy)-2-((R)-4-(5,8-dimethylchroman-6-yl)-6-methyl-1-(6-methylnicotinoyl)indolin-5-yl)acetic acid] was 121 nM.
The value for `CC(=O)Nc1cccc(C(=O)N2CCc3c2cc(C)c([C@H](OC(C)(C)C)C(=O)O)c3-c2cc(F)c3c(c2C)CCCO3)c1` (atropisomer, axis not shown) [Example 78, (S)-2-((R)-1-(3-Acetamidobenzoyl)-4-(8-fluoro-5-methylchroman-6-yl)-6-methylindolin-5-yl)-2-(tert-butoxy)acetic acid] was 310 nM; that for `CC(=O)Nc1ccc(C(=O)N2CCc3c2cc(C)c([C@H](OC(C)(C)C)C(=O)O)c3-c2cc(F)c3c(c2C)CCCO3)cc1` (atropisomer, axis not shown) [Example 104, (S)-2-((R)-1-(4-Acetamidobenzoyl)-4-(8-fluoro-5-methylchroman-6-yl)-6-methylindolin-5-yl)-2-(tert-butoxy)acetic acid] was 323 nM.
Compound `Cc1cc2c(c(-c3cc(F)c4c(c3C)CCCO4)c1[C@H](OC(C)(C)C)C(=O)O)CCN2C(=O)C1CCC1` (atropisomer, axis not shown) [Example 161, (S)-2-(tert-Butoxy)-2-((R)-1-(cyclobutanecarbonyl)-4-(8-fluoro-5-methylchroman-6-yl)-6-methylindolin-5-yl)acetic acid] returned an IC50 of 81 nM.
The value for `Cc1ccc(C(=O)N2CCc3c2cc(C)c([C@H](OC(C)(C)C)C(=O)O)c3-c2cc(F)c3c(c2C)CCCO3)c(F)c1` (atropisomer, axis not shown) [Example 139, (S)-2-(tert-Butoxy)-2-((R)-1-(2-fluoro-4-methylbenzoyl)-4-(8-fluoro-5-methylchroman-6-yl)-6-methylindolin-5-yl)acetic acid] was 6 nM; that for `Cc1cc(F)ccc1Cn1ccc2c(-c3cc(F)c4c(c3C)CCCO4)c([C@H](OC(C)(C)C)C(=O)O)c(C)cc21` (atropisomer, axis not shown) [Example 199, (S)-2-(tert-Butoxy)-2-((R)-1-(4-fluoro-2-methylbenzyl)-4-(8-fluoro-5-methylchroman-6-yl)-6-methyl-1H-indol-5-yl)acetic acid] was 42 nM; that for `COc1ccc(C(=O)n2ccc3c(-c4cc(F)c5c(c4C)CCCO5)c([C@H](OC(C)(C)C)C(=O)O)c(C)cc32)cc1C` [Example 202, (S)-2-(tert-Butoxy)-2-((R)-4-(8-Fluoro-5-methylchroman-6-yl)-1-(4-methoxy-3-methylbenzoyl)-6-methyl-1H-indol-5-yl)acetic acid] was 93 nM.
In the case of `Cc1ccc(-c2c3c(cc(C)c2[C@H](OC(C)(C)C)C(=O)O)N(C(=O)CC2CCCCC2)CC3)cc1` [Example 25, (S)-2-(tert-Butoxy)-2-(1-(2-cyclohexylacetyl)-6-methyl-4-(p-tolyl)indolin-5-yl)acetic acid] it was 43 nM; in that of `Cc1cc2c(c(-c3cc(F)c4c(c3C)CCCO4)c1[C@H](OC(C)(C)C)C(=O)O)CCN2C(=O)c1cccc2c1OCCO2` (atropisomer, axis not shown) [Example 83, (S)-2-(tert-Butoxy)-2-((R)-1-(2,3-dihydrobenzo[b][1,4]dioxine-5-carbonyl)-4-(8-fluoro-5-methylchroman-6-yl)-6-methylindolin-5-yl)acetic acid], 7 nM.
The value for `Cc1cc(Cl)ccc1C(=O)N1CCc2c1cc(C)c([C@H](OC(C)(C)C)C(=O)O)c2-c1cc(F)c2c(c1C)CCCO2` (atropisomer, axis not shown) [Example 47, (S)-2-(tert-Butoxy)-2-((R)-1-(4-chloro-2-methylbenzoyl)-4-(8-fluoro-5-methylchroman-6-yl)-6-methylindolin-5-yl)acetic acid] was 4 nM; that for `Cc1ccc(-c2c3c(cc(C)c2[C@H](OC(C)(C)C)C(=O)O)N(C(=O)c2cccc(F)c2)CC3)cc1` [Example 29, (S)-2-(tert-Butoxy)-2-(1-(3-fluorobenzoyl)-6-methyl-4-(p-tolyl)indolin-5-yl)acetic acid] was 17 nM.
`Cc1ccccc1C(=O)N1CCc2c1cc(C)c([C@H](OC(C)(C)C)C(=O)O)c2-c1cc(F)c2c(c1C)CCCO2` (atropisomer, axis not shown) [Example 53, (S)-2-(tert-Butoxy)-2-((R)-4-(8-fluoro-5-methylchroman-6-yl)-6-methyl-1-(2-methylbenzoyl)indolin-5-yl)acetic acid]: the 50% inhibitory concentration (IC50) came out at 3 nM.
In the case of `Cc1cc2c(c(-c3cc(F)c4c(c3C)CCCO4)c1[C@H](OC(C)(C)C)C(=O)O)CCN2C(=O)c1ccc(Cl)c(C(F)(F)F)c1` (atropisomer, axis not shown) [Example 148, (S)-2-(tert-Butoxy)-2-((R)-1-(4-chloro-3-(trifluoromethyl)benzoyl)-4-(8-fluoro-5-methylchroman-6-yl)-6-methylindolin-5-yl)acetic acid] it was 8 nM.
For `Cc1ccc(-c2c3c(cc(C)c2[C@H](OC(C)(C)C)C(=O)O)N(C(=O)c2nc(C)sc2C)CC3)cc1` [Example 26, (S)-2-(tert-Butoxy)-2-(1-(2,5-dimethylthiazole-4-carbonyl)-6-methyl-4-(p-tolyl)indolin-5-yl)acetic acid], the IC50 turned out to be 123 nM.
The value for `Cc1cc2c(c(-c3cc(F)c4c(c3C)CCCO4)c1[C@H](OC(C)(C)C)C(=O)O)CCN2C(=O)c1cccc(Cl)c1` (atropisomer, axis not shown) [Example 52, (S)-2-(tert-Butoxy)-2-((R)-1-(3-chlorobenzoyl)-4-(8-fluoro-5-methylchroman-6-yl)-6-methylindolin-5-yl)acetic acid] was 2 nM; that for `Cc1ccc(Cl)c(C(=O)N2CCc3c2cc(C)c([C@H](OC(C)(C)C)C(=O)O)c3-c2cc(F)c3c(c2C)CCCO3)c1` (atropisomer, axis not shown) [Example 165, (S)-2-(tert-Butoxy)-2-((R)-1-(2-chloro-5-methylbenzoyl)-4-(8-fluoro-5-methylchroman-6-yl)-6-methylindolin-5-yl)acetic acid] was 6 nM; that for `Cc1cc(C(=O)N2CCc3c2cc(C)c([C@H](OC(C)(C)C)C(=O)O)c3-c2cc(F)c3c(c2C)CCCO3)ccc1F` (atropisomer, axis not shown) [Example 48, (S)-2-(tert-Butoxy)-2-((R)-1-(4-fluoro-3-methylbenzoyl)-4-(8-fluoro-5-methylchroman-6-yl)-6-methylindolin-5-yl)acetic acid] was 4 nM.
In turn, `Cc1cc(C(=O)N2CCc3c2cc(C)c([C@H](OC(C)(C)C)C(=O)O)c3-c2cc(F)c3c(c2C)CCCO3)ccc1Cl` (atropisomer, axis not shown) [Example 110, (S)-2-(tert-Butoxy)-2-((R)-1-(4-chloro-3-methylbenzoyl)-4-(8-fluoro-5-methylchroman-6-yl)-6-methylindolin-5-yl)acetic acid] displayed a half-inhibitory concentration (IC50) of 4 nM.
The value for `COc1c(F)cccc1C(=O)N1CCc2c1cc(C)c([C@H](OC(C)(C)C)C(=O)O)c2-c1ccc2c(c1C)CCCO2` (atropisomer, axis not shown) [Example 181, (S)-2-(tert-Butoxy)-2-((R)-1-(3-fluoro-2-methoxybenzoyl)-6-methyl-4-(5-methylchroman-6-yl)indolin-5-yl)acetic acid] was 2 nM; that for `Cc1cc2c(c(-c3cc(F)c4c(c3C)CCCO4)c1[C@H](OC(C)(C)C)C(=O)O)CCN2C(=O)c1cccc2c1OCO2` (atropisomer, axis not shown) [Example 114, (S)-2-((R)-1-(Benzo[d][1,3]dioxole-4-carbonyl)-4-(8-fluoro-5-methylchroman-6-yl)-6-methylindolin-5-yl)-2-(tert-butoxy)acetic acid] was 5 nM.
